Measured values taken from US9775833B2, “Method for the treatment of NF1- or RAS-associated disorders” (The Trustees of Dartmouth College, priority 2015, dated 2017).
“Also recorded” adds a separate entry of the source.

Key:
LC3B-II = test: LC3B accumulation, western blot and immunofluorescence; format: cell-based, human; details: U87-MG, 24 hours; western blot, immunofluorescent microscopy
Method: (§1) U87-MG tumor cells were treated with Y100, hydroxychloroquine (an autophagy inhibitor) or rapamycin (an autophagy inducer) for 24 hours. LC3B-I to LC3-II conversion and tubulin levels were determined by western blot.
(§2) Western Blotting. U87-MG cells were plated at a concentration of 500,000 cells per well in a 6-well plate and allowed to adhere overnight. Cells were treated with the noted concentrations and times of controls or compound 1. After treatment, cells were harvested with trypsin, rinsed, and lysed with approximately 75 microliters RIPA buffer with protease and phosphatase inhibitors per 500,000 cells. Protein was quantified with a BCA assay kit (Pierce). 30 micrograms of protein was separated on a 4-15% SDS-PAGE gel (Bio-Rad) by SDS gel electrophoresis. Protein was transferred to a nitrocellulose membrane, blocked with 5% milk in TBST and probed with LC3B (Cell Signaling, 1:1000, overnight), p62/SQSTM-1 (Santa Cruz, 1:1000, 1 h), tubulin (Santa Cruz, 1:10000, 1 h), K63 ubiquitin (Cell Signaling, 1:1000, 1 h), K48 ubiquitin (Cell Signaling, 1:2000, 1 h) in 2% milk in TBST. Secondary labeling was performed with a one hour incubation in 1:20000 anti-rabbit HRP or 1:10000 anti-mouse HRP (Jackson Immunoresearch) diluted in 2% milk in TBST. Film was then exposed to ECL-coated blots (Pierce) and developed using a standard film processor.

p62/SQSTM-1 = p62/SQSTM-1 level, western blot and immunofluorescence; format: cell-based, human; details: U87-MG, 24 h; western blot, immunofluorescent microscopy
Method: U87-MG tumor cells were treated with compound 1 or hydroxychloroquine (an autophagy inhibitor) for 24 h or a cocktail of proteasome inhibitors (bortezomib, BTZ and MG-132) for 2 h. P62 and tubulin levels were determined by western blot.
as §1
as §2, with “Secondary labeling was performed with a one hour incubation in 1:20000 anti-rabbit HRP or 1:10000 anti-mouse HRP (Jackson Immunoresearch) diluted in 2% milk in TBST. Film was then exposed to ECL-coated blots (Pierce) and developed using a standard film processor.” left out

[1] = system: yeast model of NF1 deficiency (IRA2, yeast homolog of human NF1); test: Yeast growth assay, yeast model of NF1 deficiency (OD 600 nm); format: cell-based, Saccharomyces cerevisiae; details: increasing concentrations, 18 hours
Method: (§3) IRA2 is a yeast homolog of human NF1. Cells were grown in the presence of increasing concentrations of compound 1 for 18 hours. The absorbance (OD 600 nm) was measured as a surrogate marker of cell growth. The assay has been described previously: see Sanchez et al., Mol. Cancer Ther. 2011 Sep.: 10(9):1740-1750.
as §3, with “Y100B” for “compound 1”

control strains = test: Yeast growth assay, control strains (OD 600 nm); format: cell-based, Saccharomyces cerevisiae; details: increasing concentrations, 18 hours
Method: as §3
as §3, with “Y100B” for “compound 1”

[2] = system: lysine 63 and lysine 48 polyubiquitin linked-proteins; test: K63/K48 polyubiquitin western blot in U251-MG cells; format: cell-based, human; details: 24 hours, comparable to HCQ (50 uM, 24 h) or MG132 plus bortezomib cocktail
U251-MG cells = test: Mitochondrial immunofluorescence (Mitotracker Red / TOMM20) in U251-MG cells; format: cell-based, human; details: Mitotracker Red and TOMM20
U87-MG cells [3] = test: Mitochondrial immunofluorescence (Mitotracker Red / TOMM20) in U87-MG cells; format: cell-based, human; details: 24 hours, Mitotracker Red and TOMM20
Method: Polarized mitochondria are labeled with Mitotracker Red, while all mitochondria are labeled with an antibody specific to the mitochondrial protein TOMM20.
Immunofluorescence. U87-MG cells were cultured on poly-D-lysine coated coverslips (Neuvitro Corporation) or poly-L-lysine coated coverslips and treated with Compound 1 (Chembridge) for 24 hours. For the last 30 minutes of treatment, cells were labeled with 100 nM Mitotracker Red (Life Technologies). After treatment and labeling, cells were rinsed with PBS. Cells were fixed in 4% methanol-free paraformaldehyde (Electron Microscopy Services) in PBS (Corning) for 10 minutes at room temperature and blocked with immunofluorescence buffer (2% [v/v] goat serum, 0.2% [v/v] Triton X-100 and 0.05% [w/v] sodium azide in PBS) at RT. TOMM20 was labeled using 1:200 rabbit anti-TOM20 (Santa Cruz) at room temperature for one hour, and cells were rinsed 3 times for 5 minutes with PBST. Secondary labeling was performed with 1:600 goat anti-rabbit F(ab′) 2 DyLight 488 at room temperature for 1 hour (Jackson Immunoresearch) diluted in IF buffer. Cells were then rinsed 2 times for five minutes with PBST and then nuclei were labeled with DAPI in PBS for 5 minutes. Coverslips were mounted on glass slides with ProLong Gold (Life Technologies). […]

[4] = system: lysine 63 and lysine 48 polyubiquitin linked-proteins; test: K63/K48 polyubiquitin western blot in U87-MG cells; format: cell-based, human; details: 24 hours, comparable to HCQ (50 uM, 24 h) or MG132 plus bortezomib cocktail
Method: as §2

U87-MG cells [5] = test: MitoSOX Red flow cytometry for mitochondrial superoxide; format: cell-based, human; details: 24 h of treatment
Method: Flow Cytometry. To determine mitochondrial superoxide levels, 500,000 U87-MG cells/well were plated to a 6-well plate and allowed to adhere overnight. The medium was then replaced with cell culture media containing DMSO or Y100. Cells were treated for 24 hours. 30 minutes before the end of the incubation, 1 micromolar MitoSOX Red was added. At the end of the incubation, cells were rinsed with PBS and trypsinized, and then rinsed two more times. The cells were transferred to flow cytometry tubes and analyzed using a MacsQuant VYB 8-color flow cytometer. MitoSOX Red fluorescence was detected using the Y1-A (PE) channel. 30,000 events per sample were collected. Histograms were generated using the FlowJo flow cytometry analysis software package.

[6] = system: NF1-deficient tumor cells (U87-MG); test: alamarBlue viability/growth assay in U87-MG cells; format: cell-based, human
Method: Cells were incubated with drug for 15 minutes-72 h. At the noted times, the drug was removed, cells were rinsed with PBS, and replaced with normal media. At 69 hours, 5 uL of alamarBlue viability assay reagent was added to each well. At 72 h, the fluorescence was measured (Ex/Em 544/590 nm) as a surrogate indicator of viability. All values were normalized to the fluorescence observed in a vehicle (DMSO) control.
Cells were incubated with drug for 3 or 7 days. 3 hours before the end of the experiment, 5 uL of alamarBlue viability assay reagent was added to each well. At the end of each timepoint, the fluorescence was measured (Ex/Em 544/590 nm) as a surrogate indicator of viability. All values were normalized to the fluorescence observed in a vehicle (DMSO) control.
Viability Assay. Cells are cultured on plastic 96-well plates. Cell viability is estimated using metabolism as a surrogate marker via the ALAMARBLUE viability/proliferation assay (AbD Serotec; Kidlington, UK) according to the protocol of the manufacturer. The modification of the ALAMARBLUE reagent to a fluorescent substrate is measured with a fluorimeter, after which fluorescent intensity is normalized as a percentage of the vehicle control. Assays are done in triplicate.
Dose Response Assays (Mammalian Cells). To perform drug sensitivity assays, U87-MG cells were plated to 96-well plates at a concentration of 5000 cells/well. After overnight incubation, medium was removed and replaced with 100 μL of medium containing 0-20 uM Compound 1 and DMSO (to normalize DMSO concentrations). In the case of the beta-mercaptoethanol and N-acetyl cysteine co-treatment assays, cells were preincubated with these compounds or a vehicle control for 2 h before being replaced with Y100+/− N-acetyl cysteine, beta-mercaptoethanol or vehicle. Cells were incubated for the noted time with a final 3-hour incubation in 5% AlamarBlue (Thermo Scientific). The plate was scanned at an Ex/Em of 544/590 nm, and fluorescence was normalized to vehicle control wells. Dose-response curves and IC50s were calculated with the Prism 6 software package (GraphPad, San Diego, Calif., USA) by performing a 4-parameter logistic regression with outlier exclusion analysis.

[7] = ROS scavenger co-treated for 72 hours, alamarBlue

Row | SMILES | LC3B accumulation (LC3B-I to LC3-II conversion) (LC3B-II) | autophagy marker p62/SQSTM-1 (P62 accumulation) (p62/SQSTM-1) | growth / cell death of NF1-deficient yeast (absorbance OD 600 nm) [1] | growth of control yeast strains (absorbance OD 600 nm) (control strains) | accumulation of lysine 63 and lysine 48 polyubiquitin linked-proteins [2] | formation of polarized mitochondrial hotspots (U251-MG cells) | formation of polarized mitochondrial hotspots (U87-MG cells [3]) | accumulation of lysine 63 and lysine 48 polyubiquitin linked-proteins [4] | formation and/or accumulation of mitochondrial superoxide (MitoSOX Red) (U87-MG cells [5]) | effect on U87-MG cells on co-treatment with N-acetyl cysteine (NAC) [6, 7] | effect on U87-MG cells on co-treatment with β-mercaptoethanol [6, 7] | effect on cell viability/growth on pretreatment and co-treatment with buthionine sulfoximine (BSO) ([6]; U87-MG, 3-day alamarBlue assay) | drug exposure time giving an irreversible effect on cell viability/growth ([6]; U87-MG, drug removed after 15 minutes-72 h, alamarBlue read at 72 h) | viability and/or growth of U87 MG cells (alamarBlue) ([6]; incubated with drug for 3 or 7 days)
1 | CCN(CCO)CCCC(C)Nc1ccnc2cc(Cl)ccc12 (stereo not drawn) [hydroxychloroquine] | induces accumulation of the autophagy marker LC3B-II | induces P62 accumulation |  |  |  |  |  |  |  |  |  |  |  | 
2 | CCOC(=O)c1ccc2c3c(onc13)-c1ccccc1C2=O [compound 1] | not LC3B accumulation | modulates the autophagy marker and ubiquitin binding scaffold protein p62/SQSTM-1; also recorded: induces P62 accumulation | selectively inhibits growth or induces cell death | without affecting the control strains | induces the accumulation of lysine 63 and lysine 48 polyubiquitin linked-proteins | induces the formation of polarized mitochondrial hotspots | induces the formation of polarized mitochondrial hotspots | induces the accumulation of lysine 63 and lysine 48 polyubiquitin linked-proteins | induces the formation and/or accumulation of mitochondrial superoxide | abrogate the effect of compound 1 | abrogate the effect of compound 1 | potentiates the effect of compound 1 on cell viability/growth | ≤ 15 min | 
3 | COC(=O)c1ccc2c3c(onc13)-c1ccccc1C2=O [compound 2] |  |  | selectively inhibits growth or induces cell death | without affecting the control strains |  |  |  |  |  |  |  |  |  | reduces viability and/or growth
